Measured values from ChEMBL document CHEMBL1201862, “PubChem BioAssay data set” (2004).
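Results reflect a 48-hour exposure of cells in 96-well plates to compound at five concentrations. GI50 is the concentration that inhibits growth by half.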 The source made the active and inactive calls. Cut-off read from the data, not from the text of the source: active = GI50 up to about 1.1 µM and inactive = higher.

Experiments:
Experiment in all cases: DTP human tumour cell line panel, 48 h
[1] = system: HOP-62
[2] = system: NCI-H522
[3] = system: OVCAR-3
[4] = system: DLD-1
[5] = system: HT-29
[6] = system: M14
[7] = system: NCI-H460
[8] = system: MOLT-4
[9] = system: COLO 205
[10] = system: SN12C
[11] = system: SF-295
[12] = system: NCI-H23
[13] = system: ACHN
[14] = system: SF-268
[15] = system: A549
[16] = system: A498
[17] = system: MCF7
[18] = system: Hs-578T
[19] = system: MDA-MB-231
[20] = system: BT-549

Measured: GI50

COC(=O)C1(C(=O)OC)CC2c3c(c4ccccc4n3C)CC(C1=O)N2Cc1ccccc1 (stereo unspecified)
inactive: [1] > 100 µM | [2] 57.3 µM | [3] > 100 µM | [4] > 100 µM | [5] > 100 µM | [6] > 100 µM | [7] > 100 µM | [8] > 100 µM | [9] > 100 µM | [10] > 100 µM | [11] > 100 µM | [12] > 100 µM | [13] > 100 µM | [14] > 100 µM | [15] > 100 µM | [16] > 100 µM

S=C(Nc1ccccc1)N(/N=C/C=C/c1ccccc1)c1nnc(-c2ccccc2)c(-c2ccccc2)n1
inactive: [1] 78.2 µM | [2] 27.2 µM | [3] 38.6 µM | [4] 76.4 µM | [5] 99.1 µM | [6] 63.4 µM | [7] 67.5 µM | [8] 32.3 µM | [9] > 100 µM | [10] > 100 µM | [11] 42.9 µM | [12] 19.6 µM | [13] 60.4 µM | [14] 30.5 µM | [15] 38.6 µM | [16] 67.5 µM

CCN(CC)CCCC(C)NC(=O)c1ccc2c(c1)C(=O)c1ccccc1C2=O (stereo unspecified)
inactive: [1] 27.2 µM | [2] 18.9 µM | [3] 7.74 µM | [4] 17.5 µM | [5] 14 µM | [6] 18.1 µM | [7] 16.4 µM | [8] 16.6 µM | [9] 8.38 µM | [10] 18.1 µM | [11] 21.4 µM | [12] 15.4 µM | [13] 18.1 µM | [14] 23.6 µM | [15] 21.7 µM | [16] 20.6 µM

O=C1C2C3C=C4c5ccccc5N(c5ccccc5)C4(C2C(=O)N1c1ccc([N+](=O)[O-])cc1)[C@H]1C(=O)N(c2ccc([N+](=O)[O-])cc2)C(=O)[C@@H]31 (stereo partly specified)
inactive: [1] > 100 µM | [2] > 100 µM | [3] > 100 µM | [4] > 100 µM | [5] > 100 µM | [6] > 100 µM | [7] > 100 µM | [8] > 100 µM | [9] > 100 µM | [10] > 100 µM | [11] > 100 µM | [12] > 100 µM | [13] > 100 µM | [14] > 100 µM | [15] > 100 µM | [16] > 100 µM

CCCCCCCCC(C)CCCCCCCCC(=O)OCC(COP(=O)([O-])OCC[N+](C)(C)C)OC(=O)CCCCCCCCC(C)CCCCCCCC (stereo unspecified)
inactive: [1] > 100 µM | [2] > 100 µM | [3] > 100 µM | [4] > 100 µM | [5] > 100 µM | [6] > 100 µM | [7] > 100 µM | [8] > 100 µM | [9] > 100 µM | [10] > 100 µM | [11] > 100 µM | [12] > 100 µM | [13] > 100 µM | [14] > 100 µM | [15] > 100 µM | [16] > 100 µM

OCC(O)C(O)C(O)C1SC(c2ccccc2)=NN1c1ccccc1 (stereo unspecified)
inactive: [1] 38.9 µM | [2] 33 µM | [17] > 100 µM | [3] > 68.9 µM | [4] > 100 µM | [5] > 92 µM | [6] 83 µM | [7] > 78 µM | [8] > 81.3 µM | [9] > 100 µM | [10] > 91.8 µM | [11] 35.1 µM | [12] 45.7 µM | [18] 35.1 µM | [13] 64.7 µM | [19] > 55 µM | [14] 24.6 µM | [15] 78.3 µM | [20] > 100 µM | [16] > 88.5 µM

O=C(O)C(=O)/C=C\c1ccc(Cl)cc1
inactive: [1] > 100 µM | [2] > 100 µM | [3] > 100 µM | [4] > 100 µM | [5] > 100 µM | [6] > 100 µM | [7] > 100 µM | [8] > 100 µM | [9] > 100 µM | [10] > 100 µM | [11] > 100 µM | [12] > 100 µM | [13] > 100 µM | [14] > 100 µM | [15] > 100 µM | [16] > 100 µM
